Laboratory results taken from paper PMC7044277 (Nature Communications, 2020).
Several values for one entry are separate records, joined by “and”; a condition that tells them apart may be missing. Equal entries are not always repeated.

Experiments:
Type in all cases: cell-based
Set-up in all cases: GPCRome screening signal at PTGIR / GPCRome screening signal at PTH1R / GPCRome screening signal at PTH2R / GPCRome screening signal at QRFP / GPCRome screening signal at RXFP2 / GPCRome screening signal at RXFP3 / GPCRome screening signal at RXFP4 / GPCRome screening signal at S1PR2 / GPCRome screening signal at S1PR3 / GPCRome screening signal at S1PR4 / GPCRome screening signal at S1PR5 / GPCRome screening signal at SCTR / GPCRome screening signal at SSTR2 / GPCRome screening signal at SSSTR / GPCRome screening signal at SSTR4 / GPCRome screening signal at SSTR5 / GPCRome screening signal at SUCNR1 / GPCRome screening signal at TA1 / GPCRome screening signal at TAAR2 / GPCRome screening signal at TAAR5 / GPCRome screening signal at TAAR6 / GPCRome screening signal at TAAR8 / GPCRome screening signal at TACR1 / GPCRome screening signal at TACR2 / GPCRome screening signal at TACR3 / GPCRome screening signal at TBXA2R / GPCRome screening signal at TSHR / GPCRome screening signal at UTS2R / GPCRome screening signal at VIPR2 / GPCRome screening signal at GPR68 no V2 Tail / GPCRome screening signal at GRM2 / GPCRome screening signal at GRM3: reference not given here
320 non-olfactory GPCRs [1] = biological target: T1, 320 non-olfactory GPCRs (Homo sapiens, UniProt P21731); conditions: receptor TBXA2R
T1 construct: expressed in transfected cells; host or cells: HTLA cells

320 non-olfactory GPCRs [2] = biological target: T2, 320 non-olfactory GPCRs (Homo sapiens, UniProt P29371); conditions: receptor TACR3
T2 construct: expressed in transfected cells; host or cells: HTLA cells

320 non-olfactory GPCRs [3] = biological target: T3, 320 non-olfactory GPCRs (Homo sapiens, UniProt O14804); conditions: receptor TAAR5
T3 construct: expressed in transfected cells; host or cells: HTLA cells

320 non-olfactory GPCRs [4] = biological target: T4, 320 non-olfactory GPCRs (Homo sapiens, UniProt Q14416); conditions: receptor GRM2
T4 construct: expressed in transfected cells; host or cells: HTLA cells

[5] = Fig_5f, single replicate values
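For GPCRome agonism screen response in this document: fold over basal response of each receptor without drug.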

T2 sequence (P29371 whole entry): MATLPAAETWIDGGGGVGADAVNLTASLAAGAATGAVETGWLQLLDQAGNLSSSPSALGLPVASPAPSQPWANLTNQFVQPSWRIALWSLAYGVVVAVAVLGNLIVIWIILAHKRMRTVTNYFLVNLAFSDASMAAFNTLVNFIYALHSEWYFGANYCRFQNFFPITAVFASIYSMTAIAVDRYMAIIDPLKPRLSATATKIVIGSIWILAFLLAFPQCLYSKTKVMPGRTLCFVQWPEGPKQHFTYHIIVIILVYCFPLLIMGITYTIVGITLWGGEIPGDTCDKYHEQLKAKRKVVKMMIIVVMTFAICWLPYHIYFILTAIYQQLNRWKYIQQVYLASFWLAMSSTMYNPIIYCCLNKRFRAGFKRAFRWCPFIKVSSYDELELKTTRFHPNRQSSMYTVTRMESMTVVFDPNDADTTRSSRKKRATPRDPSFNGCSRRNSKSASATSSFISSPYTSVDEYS
T1 sequence (P21731 whole entry): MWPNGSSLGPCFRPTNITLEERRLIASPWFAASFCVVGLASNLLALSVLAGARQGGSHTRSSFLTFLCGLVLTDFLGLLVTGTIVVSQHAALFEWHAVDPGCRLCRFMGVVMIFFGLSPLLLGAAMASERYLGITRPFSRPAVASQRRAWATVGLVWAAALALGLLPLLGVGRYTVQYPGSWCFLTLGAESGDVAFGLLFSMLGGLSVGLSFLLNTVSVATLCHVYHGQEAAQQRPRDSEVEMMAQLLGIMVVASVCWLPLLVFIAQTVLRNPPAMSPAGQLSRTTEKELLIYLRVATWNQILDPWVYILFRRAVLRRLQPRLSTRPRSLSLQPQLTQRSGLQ
T4 sequence (Q14416 19-872): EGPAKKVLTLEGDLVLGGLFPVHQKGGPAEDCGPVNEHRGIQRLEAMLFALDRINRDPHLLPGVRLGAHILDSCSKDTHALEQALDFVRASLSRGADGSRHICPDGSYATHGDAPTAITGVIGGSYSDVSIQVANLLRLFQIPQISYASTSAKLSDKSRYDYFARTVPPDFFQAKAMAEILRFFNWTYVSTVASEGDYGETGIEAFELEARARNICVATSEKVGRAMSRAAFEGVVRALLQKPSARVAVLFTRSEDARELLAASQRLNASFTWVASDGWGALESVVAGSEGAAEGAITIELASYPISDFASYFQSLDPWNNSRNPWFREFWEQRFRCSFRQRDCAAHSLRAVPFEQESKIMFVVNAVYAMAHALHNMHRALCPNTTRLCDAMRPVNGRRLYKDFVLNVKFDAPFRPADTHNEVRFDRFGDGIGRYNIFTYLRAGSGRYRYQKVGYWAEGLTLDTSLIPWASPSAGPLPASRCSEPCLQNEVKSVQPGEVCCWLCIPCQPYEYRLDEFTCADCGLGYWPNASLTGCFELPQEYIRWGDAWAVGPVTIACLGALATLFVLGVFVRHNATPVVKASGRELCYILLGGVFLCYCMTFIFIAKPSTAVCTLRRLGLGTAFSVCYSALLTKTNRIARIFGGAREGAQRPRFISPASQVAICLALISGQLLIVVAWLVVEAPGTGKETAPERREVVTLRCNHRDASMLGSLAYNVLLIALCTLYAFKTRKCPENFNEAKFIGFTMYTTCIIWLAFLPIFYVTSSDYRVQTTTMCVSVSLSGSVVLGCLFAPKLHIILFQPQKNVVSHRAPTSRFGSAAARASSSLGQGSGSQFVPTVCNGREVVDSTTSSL
T3 sequence (O14804 whole entry): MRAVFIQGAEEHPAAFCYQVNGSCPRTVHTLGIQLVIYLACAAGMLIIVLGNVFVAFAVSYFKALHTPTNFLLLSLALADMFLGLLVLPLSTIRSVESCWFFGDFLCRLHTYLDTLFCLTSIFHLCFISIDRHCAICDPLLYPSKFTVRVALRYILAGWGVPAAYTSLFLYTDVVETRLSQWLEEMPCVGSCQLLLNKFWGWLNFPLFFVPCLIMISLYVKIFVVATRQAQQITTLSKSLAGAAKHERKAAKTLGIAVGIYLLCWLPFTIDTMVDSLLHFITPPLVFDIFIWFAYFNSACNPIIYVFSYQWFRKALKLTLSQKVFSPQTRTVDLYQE

Compound: CCOc1ccccc1CCC(C)NCC1(O)CCCCC1.Cl (racemic) [Fig_5f]
- GPCRome screening signal at TBXA2R (320 non-olfactory GPCRs [1]; [5]): 1.076 and 0.505 and 0.6523 and 0.5698
- GPCRome screening signal at TACR3 (320 non-olfactory GPCRs [2]; [5]): 1.15 and 1.023 and 1.051 and 0.8328
- GPCRome screening signal at TAAR5 (320 non-olfactory GPCRs [3]; [5]): 1.144 and 1.4451 and 1.369 and 1.654
- GPCRome screening signal at GRM2 (320 non-olfactory GPCRs [4]; [5]): 0.9548 and 1.3016 and 1.1 and 0.9506

Compound: CCOc1cccc2cc(C(C)NCC3(O)CCCCC3)oc12 (centres unmarked) [O4LE6]
- GPCRome agonism screen response (320 non-olfactory GPCRs [1]; replicate values, Fig_4g): 0.6818 and 0.496 and 0.4453 and 0.576
- GPCRome agonism screen response (320 non-olfactory GPCRs [2]; replicate values, Fig_4g): 1.119 and 1.001 and 1.104 and 0.992
- GPCRome agonism screen response (320 non-olfactory GPCRs [3]; replicate values, Fig_4g): 1.083 and 1.815 and 1.566 and 2.161
- GPCRome agonism screen response (320 non-olfactory GPCRs [4]; replicate values, Fig_4g): 1.717 and 0.9934 and 0.846 and 0.4952
